Measured values as given in patent US9963444B2, “N-acylethanolamine hydrolyzing acid amidase (NAAA) inhibitors and their use thereof” (Northeastern University, priority 2014, dated 2018).
Like-named read-outs stand apart in the source and are kept apart here.

Target: hNAAA (Homo sapiens (Human), UniProt Q02083)
Experiment: Fluorescence-based NAAA inhibition assay with fluorogenic substrate PAMCA;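 note: compound preincubated 15 min at room temperature with hNAAA, then PAMCA added at 5 µM, reacted 120 min at 37 °C, AMC release read by fluorescence (ex 360, em 460 nm)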
[1] = read-out: NAAA Inhibition IC50 μM, purified hNAAA, PAMCA 5 μM, pH 4.5

hNAAA, sequence (Q02083 29-125): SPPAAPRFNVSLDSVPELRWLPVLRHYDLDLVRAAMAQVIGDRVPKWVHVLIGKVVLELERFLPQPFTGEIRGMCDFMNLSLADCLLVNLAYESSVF
hNAAA, sequence (Q02083 126-359): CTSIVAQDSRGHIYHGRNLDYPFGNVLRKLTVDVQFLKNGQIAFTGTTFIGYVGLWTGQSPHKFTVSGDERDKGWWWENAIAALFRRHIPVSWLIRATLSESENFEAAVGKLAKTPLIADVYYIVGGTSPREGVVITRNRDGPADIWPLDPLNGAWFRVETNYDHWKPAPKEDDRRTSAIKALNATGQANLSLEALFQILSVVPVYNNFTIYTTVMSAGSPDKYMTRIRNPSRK
Procedure: For three point concentration inhibition assays with hNAAA the following procedure is used. […] These samples are allowed to incubate for 15 min at room temperature and then 10 μL of a PAMCA stock solution in DMSO (final PAMCA concentration [5 μM]) was added. After 5 minutes of agitation on a shaking plate, the reaction is allowed to proceed at 37° C. for 120 minutes, with fluorescence readings taken every 10 minutes at a wavelength of 460 nm (using an excitation wavelength of 360 nm) on a Synergy HT Plate Reader using Gen5 software from Bio-Tek. The enzyme activity is calculated by converting the relative fluorescence units to AMC formed, using a standard curve of AMC. […] The assay procedure used is the same as the three point assay. […] After 5 minutes of agitation on a shaking plate, the reaction is allowed to proceed at 37° C. for 120 minutes Inhibition constants are calculated using pro Fit software (Quantum Soft, Uetikon am See, Switzerland) and a Levenberg-Marquardt algorithm.
For three point concentration inhibition assays with hNAAA the following procedure is used. […] These samples are allowed to incubate for 15 min at room temperature and then 10 μL of a PAMCA stock solution in DMSO (final PAMCA concentration [5 μM]) was added. After 5 minutes of agitation on a shaking plate, the reaction is allowed to proceed at 37° C. for 120 minutes, with fluorescence readings taken every 10 minutes at a wavelength of 460 nm (using an excitation wavelength of 360 nm) on a Synergy HT Plate Reader using Gen5 software from Bio-Tek. The enzyme activity is calculated by converting the relative fluorescence units to AMC formed, using a standard curve of AMC.
The assay procedure used is the same as the three point assay. […] After 5 minutes of agitation on a shaking plate, the reaction is allowed to proceed at 37° C. for 120 minutes. Inhibition constants are calculated using pro Fit software (Quantum Soft, Uetikon am See, Switzerland) and a Levenberg-Marquardt algorithm.

Compound | IC50 [1] [µM] | IC50 [µM]
S=C=NCCCCc1ccccc1 [Example 1, (4-isothiocyanatobutyl)benzene] | > 1 | 
S=C=NCCCCCc1ccccc1 [Example 2, (5-Isothiocyanatopentyl)benzene] | > 1 | 
S=C=NCCCCCCCCc1ccccc1 [Example 3, (8-Isothiocyanatooctyl)benzene] | > 1 | 
S=C=NCCCCCCCc1ccc2ccccc2c1 [Example 5, 2-(7-Isothiocyanatoheptyl)naphthalene] | > 1 | 
CCCCCCCCCCCCCCCC(=O)NCCN=C=S [Example 6, N-(2-isothiocyanatoethyl)palmitamide] | > 1 | 
O=C(CCCCCCc1ccc2ccccc2c1)NCCN=C=S [Example 7, N-(2-Isothiocyanatoethyl)-7-(naphthalene-2-yl)heptanamide] | > 1 | 
S=C=Nc1ccc(Cc2ccncc2)cc1 [Example 8, 4-(4-Isothiocyanatobenzyl)pyridine] | > 1 | 
S=C=NCCN1CCN(Cc2ccccc2)CC1 [Example 9, 1-Isothiocyanato-2-(4-benzylpiperazino)ethane] | > 1 | 
S=C=NCc1ccc(N2CCOCC2)cc1 [Example 10, 4-(4-(Isothiocyanatomethyl)phenyl)morpholine] | > 1 | 
S=C=NCCN1CCC(Cc2ccccc2)CC1 [Example 11, 4-Benzyl-1-(2-isothiocyanatoethyl)piperidine] | > 1 | 
S=C=NCc1ccc(CN2CCOCC2)cc1 [Example 12, 4-(Morpholinomethyl)benzylisothiocyanate] | > 1 | 
O=C(OCc1ccccc1)N1CCC(CN=C=S)CC1 [Example 13, Benzyl 4-(isothiocyanatomethyl)tetrahydro-1(2H)-pyridinecarboxylate] | > 1 | 
Cc1cncc(Oc2ccc(CN=C=S)cc2)n1 [Example 14, 2-(4-(Isothiocyanatomethyl)phenoxy)-6-methylpyrazine] | > 1 | 
S=C=NCc1ccc(COc2ccccc2)cc1 [Example 15, 1-(Isothiocyanatomethyl)-4-(phenoxymethyl)benzene] | > 1 | 
FC(F)(F)c1ccccc1CCCCCCCCCCN=C=S [Example 16, 1-(10-Isothiocyanatodecyl)-2-(trifluoromethyl)benzene] | > 1 | 
COc1ccc(CCCCCCCCCCN=C=S)cc1 [Example 17, 1-(10-Isothiocyanatodecyl)-4-methoxybenzene] | > 1 | 
S=C=NCCCCCCCCCCc1ccccn1 [Example 18, 2-(10-Isothiocyanatodecyl)pyridine] |  | 0.01 to 0.1
S=C=NCCCCCCCCCCc1ccncc1 [Example 19, 4-(10-Isothiocyanatodecyl)pyridine] |  | 0.01 to 0.1
S=C=NCCCCCCCCCCc1ncccn1 [Example 20, 2-(10-Isothiocyanatodecyl)pyrimidine] |  | 0.01 to 0.1
S=C=NCCCCCCCCCCCc1ccccc1 [Example 21, (11-Isothiocyanatoundecyl)benzene] |  | 0.01 to 0.1
S=C=NCCCCCCCCCc1ccccc1 [Example 22, (9-Isothiocyanatononyl)benzene] |  | 0.01 to 0.1
S=C=NCCOCCOCCOCc1ccccc1 [Example 23, ((2-(2-(2-Isothiocyanatoethoxy)ethoxy)ethoxy)methyl)benzene] |  | 0.01 to 0.1
S=C=NCCCOCc1cccc(-c2ccccc2)c1 [Example 24, 3-((3-Isothiocyanatopropoxy)methyl)-1,1′-biphenyl] |  | 0.01 to 0.1
S=C=NCCCOCc1ccc(-c2ccccc2)cc1 [Example 25, 4-((3-Isothiocyanatopropoxy)methyl)-1,1′-biphenyl] |  | 0.01 to 0.1
S=C=NCCCOCc1ccc(Oc2ccccc2)cc1 [Example 26, 1((3-Isothiocyanatopropoxy)methyl)-4-phenoxybenzene] |  | 0.01 to 0.1
S=C=NCCCCCN1CCC(Cc2ccccc2)CC1 [Example 27, 4-Benzyl-1-(5-isothiocyanatopentyl)piperidine] |  | 0.01 to 0.1

Compound | IC50 [1] [µM] | IC50 [µM]
Cc1ccc(-c2ccc(CO[C@H]3C[C@H](N=C=S)C3)cc2)cc1 [Example 28, 4-(((1R,3R)-3-Isothiocyanatocyclobutoxy)methyl)-4′-methyl-1,1′-biphenyl] |  | 0.11 to 1
Cc1ccc(-c2ccc(CO[C@H]3C[C@@H](N=C=S)C3)cc2)cc1 [Example 29, 4-(((1S,3S)-3-Isothiocyanatocyclobutoxy)methyl)-4′-methyl-1,1′-biphenyl] |  | 0.01 to 0.1
S=C=N[C@H]1C[C@H](OCc2ccc(-c3ccccc3)cc2)C1 [Example 30, 4-(((1R,3R)-3-isothiocyanatocyclobutoxy)methyl)-1,1′-biphenyl] | > 1 | 
S=C=N[C@H]1C[C@@H](OCc2ccc(-c3ccccc3)cc2)C1 [Example 31, 4-(((1S,3S)-3-isothiocyanatocyclobutoxy)methyl)-1,1′-biphenyl] |  | 0.11 to 1
Fc1ccc(-c2ccc(CO[C@H]3C[C@@H](N=C=S)C3)c(F)c2)cc1 [Example 32, 3,4′-Difluoro-4-(((1S,3S)-3-isothiocyanatocyclobutoxy)methyl)-1,1′-biphenyl] |  | 0.11 to 1
COc1ccc(-c2ccc(CO[C@H]3C[C@@H](N=C=S)C3)c(F)c2)cc1F [Example 33, 3,3′-Difluoro-4-(((1S,3S)-3-isothiocyanatocyclobutoxy)methyl)-4′-methoxy-1,1′-biphenyl] |  | 0.01 to 0.1
COc1cccc(-c2ccc(CO[C@H]3C[C@H](N=C=S)C3)cc2)c1 [Example 34, 4′-(((1R,3R)-3-isothiocyanatocyclobutoxy)methyl)-3-methoxy-1,1′-biphenyl] | > 1 | 
COc1cccc(-c2ccc(CO[C@H]3C[C@@H](N=C=S)C3)cc2)c1 [Example 35, 4′-(((1S,3S)-3-isothiocyanatocyclobutoxy)methyl)-3-methoxy-1,1′-biphenyl] |  | 0.01 to 0.1
CCOc1ccc(-c2ccc(CO[C@H]3C[C@@H](N=C=S)C3)c(F)c2)cc1F [Example 36, 4-Ethoxy-3,3′-difluoro-4′-(((1S,3S)-3-isothiocyanatocyclobutoxy)methyl)-1,1′-biphenyl] |  | 0.01 to 0.1
CC(C)Oc1ccc(-c2ccc(CO[C@H]3C[C@@H](N=C=S)C3)c(F)c2)cc1F [Example 37, 3,3′-Difluoro-4-isopropoxy-4′-(((1S,3S)-3-isothiocyanatocyclobutoxy)methyl)-1,1′-biphenyl] |  | 0.11 to 1
Fc1cc(-c2ccc3c(c2)OCCO3)ccc1CO[C@H]1C[C@@H](N=C=S)C1 [Example 38, 6-(3-Fluoro-4-(((1S,3S)-3-isothiocyanatocyclobutoxy)methyl)phenyl)-2,3-dihydrobenzo[b][1,4]dioxine] |  | 0.01 to 0.1
Fc1cc(-c2ccc3c(c2)OCO3)ccc1CO[C@H]1C[C@@H](N=C=S)C1 [Example 39, 5-(3-Fluoro-4-(((1S,3S)-3-isothiocyanatocyclobutoxy)methyl)phenyl)benzo[d][1,3]dioxole] |  | 0.01 to 0.1
COc1ccc(-c2ccc(CO[C@H]3C[C@@H](N=C=S)C3)c(F)c2)cc1OC [Example 40, 3-Fluoro-4-(((1S,3S)-3-isothiocyanatocyclobutoxy)methyl)-3′,4′-dimethoxy-1,1′-biphenyl] |  | 0.01 to 0.1
COc1ncccc1-c1ccc(COC2CC(N=C=S)C2)c(F)c1 [Example 41, 3-(3-Fluoro-4-(((1R,3R)-3-isothiocyanatocyclobutoxy)methyl)phenyl)-2-methoxypyridine] | 0.11 to 1 | 
COc1ccc(-c2ccc(COC3CC(N=C=S)C3)nc2)cc1F [Example 42, 5-(3-Fluoro-4-methoxyphenyl)-2-(((1R,3R)-3-isothiocyanatocyclobutoxy)methyl)pyridine] | 0.01 to 0.1 | 
COc1ccc(-c2ccc(F)c(CO[C@H]3C[C@@H](N=C=S)C3)c2)cc1F [Example 43, 3,4′-Difluoro-3′-(((1S,3S)-3-isothiocyanatocyclobutoxy)methyl)-4-methoxy-1,1′-biphenyl] | > 1 | 
Fc1cc(Br)ccc1COC1CC(N=C=S)C1 [Example 44, 4-Bromo-2-fluoro-1-(((1R,3R)-3-isothiocyanatocyclobutoxy)methyl)benzene] | 0.11 to 1 | 
Cc1noc(C)c1-c1ccc(COC2CC(N=C=S)C2)c(F)c1 [Example 45, 4-(3-Fluoro-4-(((1R,3R)-3-isothiocyanatocyclobutoxy)methyl)phenyl)-3,5-dimethylisoxazole] | > 1 | 
Cn1cc(-c2ccc(COC3CC(N=C=S)C3)c(F)c2)cn1 [Example 46, 4-(3-Fluoro-4-(((1R,3R)-3-isothiocyanatocyclobutoxy)methyl)phenyl)-1-methyl-1H-pyrazole] | 0.11 to 1 | 
Fc1cc(-c2cccc(C(F)(F)F)c2)ccc1COC1CC(N=C=S)C1 [Example 47, 3-Fluoro-4-(((1R,3R)-3-isothiocyanatocyclobutoxy)methyl)-3′-(trifluoromethyl)-1,1′-biphenyl] | 0.01 to 0.1 | 
Fc1cc(-c2cccc(OCc3ccccc3)c2)ccc1COC1CC(N=C=S)C1 [Example 48, 3′-(Benzyloxy)-3-fluoro-4-(((1R,3R)-3-isothiocyanatocyclobutoxy)methyl)-1,1′-biphenyl] | 0.01 to 0.1 | 
S=C=N[C@H]1C[C@@H](OCc2ccc(Oc3ccccc3)cc2Br)C1 [Example 49, 2-Bromo-1-(((1S,3S)-3-isothiocyanatocyclobutoxy)methyl)-4-phenoxybenzene] |  | 0.11 to 1
S=C=N[C@H]1C[C@@H](OCc2ccc(Oc3ccccc3)cc2-c2ccccc2)C1 [Example 50, 2-(((1S,3S)-3-Isothiocyanatocyclobutoxy)methyl)-5-phenoxy-1,1′-biphenyl] | > 1 | 
COc1ccc(-c2ccc(O[C@H]3C[C@H](N=C=S)C3)cc2)cc1F [Example 51, 3-Fluoro-4′-((1R,3R)-3-isothiocyanatocyclobutoxy)-4-methoxy-1,1′-biphenyl] |  | 0.01 to 0.1
COc1ccc(-c2ccc(O[C@H]3C[C@@H](N=C=S)C3)cc2)cc1F [Example 52, 3-Fluoro-4′-((1S,3S)-3-isothiocyanatocyclobutoxy)-4-methoxy-1,1′-biphenyl] |  | 0.01 to 0.1
CN(Cc1ccc(-c2ccccc2)cc1)C1CC(N=C=S)C1 [Example 53, (1R,3R)—N-([1,1′-Biphenyl]-4-ylmethyl)-3-isothiocyanato-N-methylcyclobutan-1-amine] | > 1 | 
